From patent publication US20230212131A1, “COLLAGEN 1 TRANSLATION INHIBITORS AND METHODS OF USE THEREOF” (Anima Biotech Inc., priority 2020, published 2023)

System: collagen 1 (COL1)
Test: WI-38 collagen 1 inhibition assay
Assay type: cell-based, human
Settings: Cellular EC50, WI-38 cells; values are classes of LogEC50
Summary of the method: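 WI-38 fibroblasts serum-starved (0.25% FBS 2 h, then none 24 h), then given a collagen induction cocktail together with compound. Cells fixed, immunostained for collagen I with DAPI counterstain, and imaged at 20×; per-cell fluorescence quantified by image analysis.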

Row | SMILES | COL1 Efficacy (LogEC50)
1 | Cc1ccc(C(=O)Nc2nc(-c3ccc(Cl)cc3Cl)cs2)cc1 [Compound 307, N-(4-(2,4-dichlorophenyl)thiazol-2-yl)-4-methylbenzamide] | +++ (+++: <−6)
2 | Cc1ccc(C(=O)Nc2nc(-c3cccnc3C)cs2)cn1 [Compound 344, 6-methyl-N-[4-(2-methyl-3-pyridyl)thiazol-2-yl]pyridine-3-carboxamide] | +++ (+++: <−6)
3 | COCc1ncccc1-c1csc(NC(=O)c2ccc(N3CCN(C(C)=O)CC3)cn2)n1 [compound 471, 5-(4-acetylpiperazin-1-yl)-N-(4-(2-(methoxymethyl)pyridin-3-yl)thiazol-2-yl)picolinamide] | +++ (+++: <−6)
4 | CN1CCCC(C(=O)N2CCN(c3ccc(C(=O)Nc4nc(-c5ccccc5Cl)cs4)nc3)CC2)C1 (centres unmarked) [Compound 467, N-(4-(2-chlorophenyl)thiazol-2-yl)-5-(4-(1-methylpiperidine-3-carbonyl)piperazin-1-yl)picolinamide hemiformate] | +++ (+++: <−6)
5 | COc1ncccc1-c1csc(NC(=O)c2ccc(C)nc2)n1 [Compound 319, N-[4-(2-methoxy-3-pyridyl)thiazol-2-yl]-6-methyl-pyridine-3-carboxamide] | ++ (++: −5 to −6)
6 | O=C(Nc1nc(-c2ccccc2Cl)cs1)c1ccc(N2CCCC2)cn1 [compound 481, N-(4-(2-chlorophenyl)thiazol-2-yl)-5-(pyrrolidin-1-yl)picolinamide] | +++ (+++: <−6)
7 | CC(=O)N1CCN(c2ccc(C(=O)Nc3nc(-c4ccccc4Cl)cs3)nc2)CC1 [compound 442, 5-(4-acetylpiperazin-1-yl)-N-(4-(2-chlorophenyl)thiazol-2-yl)picolinamide] | +++ (+++: <−6)
8 | Cc1ncccc1-c1csc(NC(=O)c2ccc(N3CCOCC3)cc2)n1 [compound 369, N-[4-(2-methyl-3-pyridyl)thiazol-2-yl]-4-morpholino-benzamide] | ++ (++: −5 to −6)
9 | O=C(Nc1nc(-c2ccccc2Cl)cs1)c1ccc(N2CCC[C@@H](O)C2)cn1 [compound 487, (R)—N-(4-(2-chlorophenyl)thiazol-2-yl)-5-(3-hydroxypiperidin-1-yl)picolinamide] | +++ (+++: <−6)
10 | O=C(Nc1nc(-c2ccccc2)cs1)c1ccc(N2CCOCC2)cc1 [compound 359, 4-morpholino-N-(4-phenylthiazol-2-yl)benzamide] | + (+: >−5)
11 | O=C(Nc1nc(-c2ccccc2Cl)c[nH]1)c1ccc(N2CCOCC2)cn1 [Compound 404, N-(4-(2-chlorophenyl)-1H-imidazol-2-yl)-5-morpholinopicolinamide] | +++ (+++: <−6)
12 | CN1CCC[C@@H](C(=O)N2CCN(c3ccc(C(=O)Nc4nc(-c5ccccc5Cl)cs4)nc3)CC2)C1 [Compound 485, (R)—N-(4-(2-chlorophenyl)thiazol-2-yl)-5-(4-(1-methylpiperidine-3-carbonyl)piperazin-1-yl)picolinamide] | +++ (+++: <−6)
13 | CC(=O)N1CCN(c2ccc(C(=O)Nc3nc(-c4ccccc4CO)cs3)nc2)CC1 [compound 470, 5-(4-acetylpiperazin-1-yl)-N-(4-(2-(hydroxymethyl)phenyl)thiazol-2-yl)picolinamide] | +++ (+++: <−6)
14 | COCCOc1ccccc1-c1csc(NC(=O)c2ccc(C)nc2)n1 [Compound 341, N-[4-[2-(2-methoxyethoxy)phenyl]thiazol-2-yl]-6-methyl-pyridine-3-carboxamide] | ++ (++: −5 to −6)
15 | O=C(Nc1nc(-c2ccccc2Cl)cs1)c1cnc(N2CCOCC2)nc1 [compound 358, N-[4-(2-chlorophenyl)thiazol-2-yl]-2-morpholino-pyrimidine-5-carboxamide] | − (−: inactive)
16 | COCc1ccccc1-c1csc(NC(=O)c2ccc(N3CCN(C(C)=O)CC3)cn2)n1 [compound 469, 5-(4-acetylpiperazin-1-yl)-N-(4-(2-(methoxymethyl)phenyl)thiazol-2-yl)picolinamide] | +++ (+++: <−6)
17 | CS(=O)(=O)N1CCN(C2CCC(C(=O)Nc3nc(-c4ccccc4Cl)cs3)CC2)CC1 (single isomer, unassigned) [Compound 434, (1s,4s)-N-(4-(2-chlorophenyl)thiazol-2-yl)-4-(4-(methylsulfonyl)piperazin-1-yl)cyclohexane-1-carboxamide] | + (+: >−5)
18 | O=C(Nc1nc(-c2ccccc2Cl)cs1)c1ccc(N2CCCC(O)C2)cn1 (centres unmarked) [compound 477, N-(4-(2-chlorophenyl)thiazol-2-yl)-5-(3-hydroxypiperidin-1-yl)picolinamide] | +++ (+++: <−6)
19 | CNC1CCN(c2ccc(C(=O)Nc3nc(-c4ccccc4Cl)cs3)nc2)CC1 [compound 476] | − (−: inactive)

Row | SMILES | COL1 Efficacy (LogEC50)
20 | N#Cc1ccccc1-c1csc(NC(=O)c2ccc(N3CCOCC3)cc2)n1 [compound 361, N-[4-(2-cyanophenyl)thiazol-2-yl]-4-morpholino-benzamide] | − (−: inactive)
21 | COc1ccc(C(=O)Nc2nc(-c3cccc4c3OCCO4)cs2)cc1 [Compound 337, N-[4-(2,3-dihydro-1,4-benzodioxin-5-yl)thiazol-2-yl]-4-methoxy-benzamide] | ++ (++: −5 to −6)
22 | CN1CCC2(CCN(c3ccc(C(=O)Nc4nc(-c5ccccc5Cl)cs4)nc3)CC2)C1=O [compound 452, N-(4-(2-chlorophenyl)thiazol-2-yl)-5-(2-methyl-1-oxo-2,8-diazaspiro[4.5]decan-8-yl)picolinamide] | +++ (+++: <−6)
23 | COc1ccc(C(=O)Nc2nc(-c3cncnc3)cs2)cc1 [Compound 338, 4-methoxy-N-(4-pyrimidin-5-ylthiazol-2-yl)benzamide] | + (+: >−5)
24 | CN1CCN(C(=O)c2ccc(C(=O)Nc3nc(-c4ccccc4Cl)cs3)nc2)CC1 [compound 437, N-(4-(2-chlorophenyl)thiazol-2-yl)-5-(4-methylpiperazine-1-carbonyl)picolinamide] | ++ (++: −5 to −6)
25 | Cc1cc(N2CCOCC2)ccc1C(=O)Nc1nc(-c2ccccc2Cl)cs1 [Compound 410, N-(4-(2-chlorophenyl)thiazol-2-yl)-2-methyl-4-morpholinobenzamide] | +++ (+++: <−6)
26 | COc1ccc(C(=O)Nc2nc(-c3cnccc3OC)cs2)cc1 [Compound 326, 4-methoxy-N-[4-(4-methoxy-3-pyridyl)thiazol-2-yl]benzamide] | ++ (++: −5 to −6)
27 | O=C(Nc1nc(-c2ccccc2Cl)cs1)c1cnc(N2CCOCC2)cn1 [compound 367, N-[4-(2-chlorophenyl)thiazol-2-yl]-5-morpholino-pyrazine-2-carboxamide] | +++ (+++: <−6)
28 | O=C(Nc1nc(-c2ccccc2Cl)cs1)C1CN(C2CCOCC2)C1 [compound 363, N-[4-(2-chlorophenyl)thiazol-2-yl]-1-tetrahydropyran-4-yl-azetidine-3-carboxamide] | ++ (++: −5 to −6)
29 | CN1CCC(C(=O)N2CCN(c3ccc(C(=O)Nc4nc(-c5ccccc5Cl)cs4)nc3)CC2)CC1 [Compound 483, N-(4-(2-chlorophenyl)thiazol-2-yl)-5-(4-(1-methylpiperidine-4-carbonyl)piperazin-1-yl)picolinamide] | +++ (+++: <−6)
30 | CS(=O)(=O)N1CCN(C(=O)[C@H]2C[C@H](C(=O)Nc3nc(-c4ccccc4Cl)cs3)C2)CC1 [Compound 430, (1r,3r)-N-(4-(2-chlorophenyl)thiazol-2-yl)-3-(4-(methylsulfonyl)piperazine-1-carbonyl)cyclobutane-1-carboxamide] | + (+: >−5)
31 | COc1ccc(C(=O)Nc2nc(-c3cccnc3OC)cs2)cc1 [Compound 332, 4-methoxy-N-[4-(2-methoxy-3-pyridyl)thiazol-2-yl]benzamide] | ++ (++: −5 to −6)
32 | O=C(Nc1nc(-c2ccccc2Cl)cs1)C1CC(C(=O)N2CCOCC2)C1 (centres unmarked) [compound 426] | − (−: inactive)
33 | CC(=O)N1CC2(C1)CN(c1ccc(C(=O)Nc3nc(-c4ccccc4Cl)cs3)nc1)C2 [compound 449, 5-(6-acetyl-2,6-diazaspiro[3.3]heptan-2-yl)-N-(4-(2-chlorophenyl)thiazol-2-yl)picolinamide] | +++ (+++: <−6)
34 | CC(C)=CC(=O)Nc1nc(-c2cc(Cl)sc2Cl)cs1 [compound 314] | ++ (++: −5 to −6)
35 | COCCC(=O)N1CCN(c2ccc(C(=O)Nc3nc(-c4ccccc4Cl)cs3)cc2)CC1 [Compound 376, N-(4-(2-chlorophenyl)thiazol-2-yl)-4-(4-(3-methoxypropanoyl)piperazin-1-yl)benzamide] | +++ (+++: <−6)
36 | COc1cccc(-c2csc(NC(=O)c3ccc(N4CCOCC4)cc3)n2)c1 [compound 357, N-[4-(3-methoxyphenyl)thiazol-2-yl]-4-morpholino-benzamide] | + (+: >−5)
37 | CN1CC2(CCN(c3ccc(C(=O)Nc4nc(-c5ccccc5Cl)cs4)nc3)CC2)C1 [compound 456, N-(4-(2-chlorophenyl)thiazol-2-yl)-5-(2-methyl-2,7-diazaspiro[3.5]nonan-7-yl)picolinamide] | +++ (+++: <−6)
38 | Cc1ccc(C(=O)Nc2nc(-c3cnn(C)c3)cs2)cn1 [Compound 317, 6-methyl-N-[4-(1-methylpyrazol-4-yl)thiazol-2-yl]pyridine-3-carboxamide] | + (+: >−5)
